US9199946B2, “Pyrimidinone carboxamide inhibitors of endothelial lipase” (BRISTOL-MYERS SQUIBB COMPANY, priority 2012, dated 2015)
Like-named read-outs stand apart in the source and are kept apart here.

Biological target: T1, Endothelial lipase (EL) (Homo sapiens, UniProt Q9Y5X9)
T1 construct: HT-1080 cells, which were transformed by RAGE technology (Athersys) to overexpress endogenous EL; endogenous in cells; conditioned medium used as the enzyme source
T1 sequence (Q9Y5X9 21-500): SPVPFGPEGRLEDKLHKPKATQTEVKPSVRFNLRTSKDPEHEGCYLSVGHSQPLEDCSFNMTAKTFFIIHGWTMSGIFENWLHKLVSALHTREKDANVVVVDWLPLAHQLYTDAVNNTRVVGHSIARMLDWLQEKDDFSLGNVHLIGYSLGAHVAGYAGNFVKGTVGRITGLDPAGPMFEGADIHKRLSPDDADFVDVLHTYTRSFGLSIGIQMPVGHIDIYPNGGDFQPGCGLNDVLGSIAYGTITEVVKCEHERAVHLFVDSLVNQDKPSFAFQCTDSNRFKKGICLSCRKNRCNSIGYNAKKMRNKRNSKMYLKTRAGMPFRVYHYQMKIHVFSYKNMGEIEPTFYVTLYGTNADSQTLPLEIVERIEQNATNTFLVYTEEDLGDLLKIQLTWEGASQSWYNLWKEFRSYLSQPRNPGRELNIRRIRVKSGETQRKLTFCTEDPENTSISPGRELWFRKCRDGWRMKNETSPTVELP
Test: Endothelial lipase (EL) enzymatic assay with fluorescent substrate A10070 in DMPG vesicles
Assay type: biochemical
Outline: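 The enzyme source was conditioned medium from HT-1080 cells engineered to overexpress endogenous EL. It was preincubated with compound for 20 min at 37 °C in 50 mM HEPES pH 8.0, 50 mM NaCl, 1 mM CaCl2. Reactions started with DMPG vesicles carrying FRET substrate A10070 (mole fraction 0.05). The rate was taken from the linear slope of fluorescence (ex 488/em 530 nm) over 10 min.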

[1] = range observed in the EL assay, read-out: EL IC50 values
[2] = conditioned media from HT-1080 cells overexpressing endogenous EL, 20 min preincubation at 37° C., read-out: EL IC50

SMILES | IC50 [1] [µM] | IC50 [2] [µM]
CCOC(=O)[C@H]1CCC[C@H]1NC(=O)c1[nH]c(=O)[nH]c(=O)c1N [Example 61, (1S,2R)-ethyl 2-(5-amino-2,6-dioxo-1,2,3,6-tetrahydropyrimidine-4-carboxamido) cyclopentanecarboxylate] | ≤ 10 | –
O=C(N[C@H]1CC[C@@H](c2ccccc2)CC1)c1[nH]c(=O)[nH]c(=O)c1NCCCn1ccnc1 [Example 216, 5-(3-(1H-imidazol-1-yl)propylamino)-2,6-dioxo-N-(cis-4-phenylcyclohexyl)-1,2,3,6-tetrahydropyrimidine-4-carboxamide] | ≤ 10 | 3.48
O=C(N[C@H]1CC[C@@H](c2ccccc2)CC1)c1[nH]c(=O)[nH]c(=O)c1NCCCN1CCOCC1 [Example 219, 5-(3-morpholinopropylamino)-2,6-dioxo-N-(cis-4-phenylcyclohexyl)-1,2,3,6-tetrahydropyrimidine-4-carboxamide] | ≤ 10 | –
Nc1c(C(=O)NC2CCCN(c3nccc(C(F)(F)F)n3)C2)[nH]c(=O)[nH]c1=O (centres unmarked) [Example 184, 5-amino-2,6-dioxo-N-(1-(4-(trifluoromethyl)pyrimidin-2-yl)piperidin-3-yl)-1,2,3,6-tetrahydropyrimidine-4-carboxamide] | ≤ 10 | 5.71
O=C(NC1CCCc2c(NS(=O)(=O)c3ccccc3)cccc21)c1[nH]c(=O)[nH]c(=O)c1O (centres unmarked) [Example 287, 5-hydroxy-2,6-dioxo-N-(5-(phenylsulfonamido)-1,2,3,4-tetrahydronaphthalen-1-yl)-1,2,3,6-tetrahydropyrimidine-4-carboxamide] | ≤ 10 | –
Nc1c(C(=O)NC2CCN(c3nc(Br)nn3Cc3ccccc3)C2)[nH]c(=O)[nH]c1=O (centres unmarked) [Example 187, 5-amino-N-(1-(1-benzyl-3-bromo-1H 1,2,4-triazol-5-yl)pyrrolidin-3-yl)-2,6 dioxo-1,2,3,6-tetrahydropyrimidine-4 carboxamide] | ≤ 10 | 0.946
Nc1c(C(=O)N[C@@H]2CCc3ccc(OCc4ccccc4)cc32)[nH]c(=O)[nH]c1=O [Example 91, (R)-5-amino-N-(6-(benzyloxy)-2,3-dihydro-1H-inden-1-yl)-2,6-dioxo-1,2,3,6-tetrahydropyrimidine-4-carboxamide] | ≤ 10 | –
O=C(N[C@H]1CC[C@H](c2ccccc2)C1)c1[nH]c(=O)[nH]c(=O)c1O [Example 275, 5-hydroxy-2,6-dioxo-N-((1S,3S)-3-phenylcyclopentyl)-1,2,3,6-tetrahydropyrimidine-4-carboxamide] | ≤ 10 | –
O=C(N[C@H]1CCN(c2ccccc2)C1)c1[nH]c(=O)[nH]c(=O)c1O [Example 274, (S)-5-hydroxy-2,6-dioxo-N-(1-phenylpyrrolidin-3-yl)-1,2,3,6-tetrahydropyrimidine-4-carboxamide] | ≤ 10 | –
Nc1c(C(=O)N[C@H]2CCCc3c(OCc4ccccc4)cccc32)[nH]c(=O)[nH]c1=O [Example 92, (S)-5-amino-N-(5-(benzyloxy)-1,2,3,4-tetrahydronaphthalen-1-yl)-2,6-dioxo-1,2,3,6-tetrahydropyrimidine-4-carboxamide] | ≤ 10 | –
O=C(N[C@H]1CC[C@@H](c2ccccc2)CC1)c1[nH]c(=O)[nH]c(=O)c1NCc1cccnc1 [Example 209, 2,6-dioxo-N-(cis-4-phenylcyclohexyl)-5-(pyridin-3-ylmethylamino)-1,2,3,6-tetrahydropyrimidine-4-carboxamide] | ≤ 10 | 0.512
Cc1cc(Cl)nc(N2CCCC(NC(=O)c3[nH]c(=O)[nH]c(=O)c3N)C2)n1 (centres unmarked) [Example 185, 5-amino-N-(1-(4-chloro-6-methylpyrimidin-2-yl)piperidin-3-yl)-2,6-dioxo-1,2,3,6-tetrahydropyrimidine-4-carboxamide] | ≤ 10 | –

Other lines, results leading:

IC50 [1] [µM] | IC50 [2] [µM] | SMILES
≤ 10 | – | COc1cccc2c1C(NC(=O)c1[nH]c(=O)[nH]c(=O)c1N)CCC2 (centres unmarked) [Example 66, 5-amino-N-(8-methoxy-1,2,3,4-tetrahydronaphthalen-1-yl)-2,6-dioxo-1,2,3,6-tetrahydropyrimidine-4-carboxamide]
≤ 10 | – | O=C(N[C@H]1CC[C@@H](c2ccccc2)CC1)c1[nH]c(=O)[nH]c(=O)c1NC1CCN(Cc2ccccc2)C1 (stereo partly drawn) [Example 223, 5-(1-benzylpyrrolidin-3-ylamino)-2,6-dioxo-N-(cis-4-phenylcyclohexyl)-1,2,3,6-tetrahydropyrimidine-4-carboxamide]
≤ 10 | – | COC(=O)[C@H]1CC[C@@H](NC(=O)c2[nH]c(=O)[nH]c(=O)c2N)CC1 [Example 43, cis-methyl 4-(5-amino-2,6-dioxo-1,2,3,6-tetrahydropyrimidine-4-carboxamido) cyclohexanecarboxylate]
≤ 10 | 7.16 | Nc1c(C(=O)N[C@H]2CCCc3ccc(C(F)(F)F)cc32)[nH]c(=O)[nH]c1=O [Example 54, (S)-5-amino-2,6-dioxo-N-(7-(trifluoromethyl)-1,2,3,4-tetrahydronaphthalen-1-yl)-1,2,3,6-tetrahydropyrimidine-4-carboxamide]
≤ 10 | – | COc1ccc([C@@H]2CC[C@@H](NC(=O)c3[nH]c(=O)[nH]c(=O)c3N)C2)cn1 [Example 80, 5-amino-N-((1R,3R)-3-(6-methoxypyridin-3-yl)cyclopentyl)-2,6-dioxo-1,2,3,6-tetrahydropyrimidine-4-carboxamide]
≤ 10 | – | Nc1c(C(=O)N[C@@H]2CCCc3c(OCc4ccccc4F)cccc32)[nH]c(=O)[nH]c1=O [Example 96, (R)-5-amino-N-(5-(2-fluorobenzyloxy)-1,2,3,4-tetrahydronaphthalen-1-yl)-2,6-dioxo-1,2,3,6-tetrahydropyrimidine-4-carboxamide]
≤ 10 | – | Nc1c(C(=O)N[C@@H]2CC[C@@H](C(=O)NCc3nc4ccccc4s3)C2)[nH]c(=O)[nH]c1=O [Example 148, 5-amino-N-((1R,3R)-3-(benzo[d]thiazol-2-ylmethylcarbamoyl)cyclopentyl)-2,6-dioxo-1,2,3,6-tetrahydropyrimidine-4-carboxamide]
≤ 10 | – | Nc1c(C(=O)N[C@@H]2CC(c3ccccc3)c3ccccc32)[nH]c(=O)[nH]c1=O (stereo in doubt) [Example 29, 5-amino-2,6-dioxo-N-((1R,3S)-3-phenyl-2,3-dihydro-1H-inden-1-yl)-1,2,3,6-tetrahydropyrimidine-4-carboxamide]
≤ 10 | 0.141 | NC(=O)c1ccccc1-c1ccc([C@@H]2CC[C@H](NC(=O)c3[nH]c(=O)[nH]c(=O)c3N)C2)cc1 [Example 180, 5-amino-N-((1S,3R)-3-(2′-carbamoyl-[1,1′-biphenyl]-4-yl)cyclopentyl)-2,6-dioxo-1,2,3,6-tetrahydropyrimidine-4-carboxamide]
≤ 10 | – | O=C(N[C@H]1CC[C@H](C(=O)Nc2ccccc2)C1)c1[nH]c(=O)[nH]c(=O)c1O [Example 290, 5-hydroxy-2,6-dioxo-N-((1S,3S)-3-(phenylcarbamoyl)cyclopentyl)-1,2,3,6-tetrahydropyrimidine-4-carboxamide]
≤ 10 | – | Nc1c(C(=O)NC2CCCC(c3ccccc3)C2)[nH]c(=O)[nH]c1=O (single isomer, unassigned) [Example 100, 5-amino-2,6-dioxo-N-(3-phenylcyclohexyl)-1,2,3,6-tetrahydropyrimidine-4-carboxamide]
